Data as given in ChEMBL document CHEMBL4261636, “Design of Y2 Receptor Selective and Proteolytically Stable PYY3-36 Analogues” (J Med Chem, 2018).
Bridge positions count the residues as written; N and C are the ends. Square brackets hold non-standard residues; d marks the D form. Peptide text beside a SMILES is read from it. Ahx = NCCCCCC(=O)O

Key:
[1] = target: T1, Neuropeptide Y receptor type 4 (Homo sapiens, UniProt P50391); assay: Activation of human Y4R expressed in HEK293 cells assessed as inhibition of isoproterenol-induced increase in intracellular cAMP levels by calcium 5 dye-based FLIPR assay; assay type: functional, cell-based; conditions: for pEC50: hek293
T1 sequence (P50391 whole entry, the tested form may be a part): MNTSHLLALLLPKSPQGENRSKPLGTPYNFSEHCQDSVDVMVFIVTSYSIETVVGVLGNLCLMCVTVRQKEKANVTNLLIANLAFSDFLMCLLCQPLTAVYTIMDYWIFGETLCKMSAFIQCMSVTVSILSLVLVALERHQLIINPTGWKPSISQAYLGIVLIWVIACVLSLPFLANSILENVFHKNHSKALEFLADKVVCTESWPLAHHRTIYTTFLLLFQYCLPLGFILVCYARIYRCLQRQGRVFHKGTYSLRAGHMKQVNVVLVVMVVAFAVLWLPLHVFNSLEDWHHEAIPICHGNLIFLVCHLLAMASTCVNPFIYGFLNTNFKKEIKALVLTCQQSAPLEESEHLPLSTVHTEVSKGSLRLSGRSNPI

[2] = target: T2, Neuropeptide Y receptor type 2 (Homo sapiens, UniProt P49146); assay: Displacement of [125I]-PYY(1 to 36 residues) from human Y2R expressed in CHO cell membranes after 2 hrs by scintillation proximity assay
T2 sequence (P49146 whole entry): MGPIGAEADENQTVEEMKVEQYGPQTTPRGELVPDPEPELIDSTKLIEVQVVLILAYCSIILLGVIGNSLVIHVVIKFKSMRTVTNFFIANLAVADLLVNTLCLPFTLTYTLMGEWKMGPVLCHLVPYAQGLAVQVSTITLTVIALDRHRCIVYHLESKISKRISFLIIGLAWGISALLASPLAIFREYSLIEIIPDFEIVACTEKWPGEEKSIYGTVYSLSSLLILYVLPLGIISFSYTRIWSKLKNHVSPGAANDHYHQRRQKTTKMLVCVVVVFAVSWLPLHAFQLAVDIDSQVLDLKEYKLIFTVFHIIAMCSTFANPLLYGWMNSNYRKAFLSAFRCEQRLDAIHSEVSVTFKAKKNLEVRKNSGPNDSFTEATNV

[3] = target: T3, Neuropeptide Y receptor type 1 (Homo sapiens, UniProt P25929); assay: Displacement of [125I]-PYY(1 to 36 residues) from human Y1R expressed in BHK-21 cell membranes after 2 hrs by scintillation proximity assay
T3 sequence (P25929 whole entry): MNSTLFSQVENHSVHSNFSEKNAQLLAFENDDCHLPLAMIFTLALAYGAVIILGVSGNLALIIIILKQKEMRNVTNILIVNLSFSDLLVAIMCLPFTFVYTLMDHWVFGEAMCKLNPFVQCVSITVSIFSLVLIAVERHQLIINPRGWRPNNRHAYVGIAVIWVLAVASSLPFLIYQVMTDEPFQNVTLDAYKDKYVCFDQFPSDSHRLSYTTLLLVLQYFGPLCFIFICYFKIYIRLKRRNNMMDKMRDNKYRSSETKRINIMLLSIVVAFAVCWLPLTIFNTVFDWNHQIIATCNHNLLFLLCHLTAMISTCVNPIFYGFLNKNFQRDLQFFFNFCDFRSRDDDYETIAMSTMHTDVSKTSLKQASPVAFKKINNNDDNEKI

[4] = target: T2, Neuropeptide Y receptor type 2; assay: Activation of human Y2R expressed in HEK293 cells assessed as inhibition of isoproterenol-induced increase in intracellular cAMP levels by calcium 5 dye-based FLIPR assay; assay type: functional, cell-based; conditions: read-out: EC50
[5] = target: T3, Neuropeptide Y receptor type 1; assay: Activation of human Y1R expressed in HEK293 cells assessed as inhibition of isoproterenol-induced increase in intracellular cAMP levels by calcium 5 dye-based FLIPR assay; assay type: functional, cell-based; conditions: for pEC50: hek293; for EC50: read-out: EC50
Homo sapiens [6] = species: Homo sapiens; assay: Selectivity ratio of Ki for human Y5R expressed in HEK293 cell membranes to Ki for human Y2R expressed in CHO cell membranes; assay type: cell-based
Homo sapiens [7] = species: Homo sapiens; assay: Selectivity ratio of Ki for human Y4R expressed in CHO-K1 cell membranes to Ki for human Y2R expressed in CHO cell membranes; assay type: cell-based
[8] = target: T4, Neuropeptide Y receptor type 5 (Homo sapiens, UniProt Q15761); assay: Displacement of [125I]-PYY(1 to 36 residues) from human Y5R expressed in HEK293 cell membranes after 2 hrs by scintillation proximity assay
T4 sequence (Q15761 whole entry): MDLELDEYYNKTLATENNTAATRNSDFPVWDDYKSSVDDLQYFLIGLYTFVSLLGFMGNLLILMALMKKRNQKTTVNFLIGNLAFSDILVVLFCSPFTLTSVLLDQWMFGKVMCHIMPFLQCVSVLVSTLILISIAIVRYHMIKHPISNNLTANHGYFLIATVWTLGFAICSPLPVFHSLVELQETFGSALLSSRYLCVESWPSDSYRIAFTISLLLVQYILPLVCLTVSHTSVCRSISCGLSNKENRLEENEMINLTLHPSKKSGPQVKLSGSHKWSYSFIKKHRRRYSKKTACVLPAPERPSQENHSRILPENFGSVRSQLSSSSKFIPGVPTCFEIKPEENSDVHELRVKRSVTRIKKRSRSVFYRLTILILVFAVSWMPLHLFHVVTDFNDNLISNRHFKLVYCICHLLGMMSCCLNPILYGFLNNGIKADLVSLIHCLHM

[9] = target: T1, Neuropeptide Y receptor type 4; assay: Displacement of [125I]-PP from human Y4R expressed in CHO-K1 cell membranes after 2 hrs by scintillation proximity assay
[10] = target: T4, Neuropeptide Y receptor type 5; assay: Activation of human Y5R expressed in HEK293 cells assessed as inhibition of isoproterenol-induced increase in intracellular cAMP levels by calcium 5 dye-based FLIPR assay; assay type: functional, cell-based
Homo sapiens [11] = species: Homo sapiens; assay: Selectivity ratio of Ki for human Y1R expressed in BHK-21 cell membranes to Ki for human Y2R expressed in CHO cell membranes; assay type: cell-based

SMILES | EC50 [1] [nM] | pEC50 [1] | Ki [2] [nM] | Ki [3] [nM] | EC50 [4] [nM] | pEC50 [5] | EC50 [5] [nM] | Ki [8] [nM] | Ki [9] [nM] | EC50 [10] [nM] | pKi ([3]; bhk-21) | Ratio Ki (Homo sapiens [6]) | Ratio Ki (Homo sapiens [7]) | Ratio Ki (Homo sapiens [11])
CC[C@H](C)[C@H](NC(=O)[C@H](Cc1ccc(O)cc1)NC(=O)[C@H](Cc1cnc[nH]1)NC(=O)[C@H](CCCNC(=N)N)NC(=O)CCCCCNC(=O)[C@H](CCCCN)NC(=O)[C@H](CO)NC(=O)[C@@H]1CCCN1C(=O)[C@@H](N)Cc1ccc(O)cc1)C(=O)N[C@@H](CC(N)=O)C(=O)N[C@@H](CC(C)C)C(=O)N[C@H](C(=O)N[C@H](C(=O)N[C@@H](CCCNC(=N)N)C(=O)N[C@@H](CCC(N)=O)C(=O)N[C@@H](CCCNC(=N)N)C(=O)N[C@@H](Cc1ccc(O)cc1)C(=O)O)[C@@H](C)O)[C@@H](C)CC (H-YPSK[Ahx]RHYINLITRQRY-OH) | – | – | 13 | 400 | – | – | – | 1300 | 200 | – | – | – | – | –
CC[C@H](C)[C@H](NC(=O)[C@H](Cc1ccc(O)cc1)NC(=O)[C@H](CCCNC(=N)N)NC(=O)[C@H](CCCNC(=N)N)NC(=O)[C@H](CC(C)C)NC(=O)[C@H](CC(=O)O)NC(=O)[C@H](C)NC(=O)[C@H](C)NC(=O)[C@H](Cc1ccc(O)cc1)NC(=O)[C@H](CCC(N)=O)NC(=O)[C@H](C)NC(=O)[C@H](CCSC)NC(=O)[C@H](CCC(N)=O)NC(=O)[C@H](CCC(=O)O)NC(=O)[C@@H]1CCCN1C(=O)[C@@H](NC(=O)[C@H](C)NC(=O)[C@H](CC(N)=O)NC(=O)[C@H](CC(=O)O)NC(=O)CNC(=O)[C@@H]1CCCN1C(=O)[C@H](Cc1ccc(O)cc1)NC(=O)[C@@H](NC(=O)[C@@H]1CCCN1C(=O)[C@H](CCC(=O)O)NC(=O)[C@H](CC(C)C)NC(=O)[C@@H]1CCCN1C(=O)[C@H](C)N)C(C)C)[C@@H](C)O)C(=O)N[C@@H](CC(N)=O)C(=O)N[C@@H](CCSC)C(=O)N[C@@H](CC(C)C)C(=O)N[C@H](C(=O)N[C@@H](CCCNC(=N)N)C(=O)N[C@@H](CCC(N)=O)C(=O)N[C@@H](CCCNC(=N)N)C(=O)N[C@@H](Cc1ccc(O)cc1)C(=O)O)[C@@H](C)O | 0.2 | – | 6.3 | 40 | 16 | – | 16 | 1.3 | 0.1 | 6.3 | – | 0.21 | 0.02 | 6.3
CC[C@H](C)[C@@H]1NC(=O)[C@H](CC(C)C)NC(=O)[C@H](CC(N)=O)NC(=O)[C@@H](NC(=O)[C@H](Cc2ccc(O)cc2)NC(=O)[C@H](Cc2cnc[nH]2)NC(=O)[C@H](CCCNC(=N)N)NC(C)=O)CCC(=O)NCCCC[C@@H](C(=O)N[C@@H](CCCNC(=N)N)C(=O)N[C@@H](CCC(N)=O)C(=O)N[C@@H](CCCNC(=N)N)C(=O)N[C@@H](Cc2ccc(O)cc2)C(=O)O)NC1=O (Ac-RHYENLIKRQRY-OH; lactam 4-8) | – | – | 79 | > 10000 | – | – | – | 5000 | 1600 | – | < 5 | 63 | 20 | > 130
CC[C@H](C)[C@H](NC(=O)[C@H](Cc1ccc(O)cc1)NC(=O)[C@H](Cc1c[nH]cn1)NC(=O)[C@H](CCCN=C(N)N)NC(=O)CCCCCNC(=O)[C@H](CCCCN)NC(=O)[C@H](CO)NC(=O)[C@@H]1CCCN1C(=O)[C@@H](N)Cc1ccc(O)cc1)C(=O)N[C@@H](CC(N)=O)C(=O)N[C@@H](CC(C)C)C(=O)N[C@H](C(=O)N[C@H](C(=O)N[C@@H](CCCN=C(N)N)C(=O)N[C@@H](CCC(N)=O)C(=O)N[C@@H](CCCN=C(N)N)C(=O)N[C@@H](Cc1ccc(O)cc1)C(=O)O)[C@@H](C)O)[C@@H](C)CC (H-YPSK[Ahx]RHYINLITRQRY-OH) | – | – | – | – | – | – | – | – | – | – | – | 100 | 15 | 31

Further compounds by falling Ki [2], results first:

EC50 [1] [nM] | pEC50 [1] | Ki [2] [nM] | Ki [3] [nM] | EC50 [4] [nM] | pEC50 [5] | EC50 [5] [nM] | Ki [8] [nM] | Ki [9] [nM] | EC50 [10] [nM] | pKi ([3]; bhk-21) | SMILES | Ratio Ki (Homo sapiens [6]) | Ratio Ki (Homo sapiens [7]) | Ratio Ki (Homo sapiens [11])
> 1000 | < 6 | 2 | 500 | 7.6 | < 6 | > 1000 | 630 | 25 | 500 | – | CC[C@H](C)[C@@H]1NC(=O)[C@H](Cc2ccc(O)cc2)NC(=O)[C@H](Cc2cnc[nH]2)NC(=O)[C@H](CCCNC(=N)N)NC(=O)CCCCCNC(=O)[C@H](CCCCN)NC(=O)[C@H](CO)NC(=O)[C@@H](NC(=O)[C@@H](N)Cc2ccc(O)cc2)CCC(=O)NCCCC[C@@H](C(=O)N[C@H](C(=O)N[C@H](C(=O)N[C@@H](CCCNC(=N)N)C(=O)N[C@@H](CCC(N)=O)C(=O)N[C@@H](CCCNC(=N)N)C(=O)N[C@@H](Cc2ccc(O)cc2)C(=O)O)[C@@H](C)O)[C@@H](C)CC)NC(=O)[C@H](CC(N)=O)NC1=O (H-YESK[Ahx]RHYINKITRQRY-OH; lactam 2-11) | 320 | 13 | 250
> 1000 | < 6 | 1.3 | 1300 | 2 | < 6 | > 1000 | 790 | 50 | 400 | – | CC[C@H](C)[C@@H]1NC(=O)[C@@H](NC(=O)[C@@H](N)Cc2ccc(O)cc2)CCC(=O)NCCCC[C@@H](C(=O)N[C@H](C(=O)N[C@H](C(=O)N[C@@H](CCCNC(=N)N)C(=O)N[C@@H](CCC(N)=O)C(=O)N[C@@H](CCCNC(=N)N)C(=O)N[C@@H](Cc2ccc(O)cc2)C(=O)O)[C@@H](C)O)C(C)C)NC(=O)[C@H](CC(N)=O)NC(=O)[C@H](CC(C)C)NC(=O)[C@H](Cc2ccc(O)cc2)NC(=O)[C@H](Cc2cnc[nH]2)NC(=O)[C@H](CCCNC(=N)N)NC(=O)CCCCCNC(=O)[C@H](CCCCN)NC1=O | 610 | 39 | 1000
